Measured values from PMC10397409, “The action of physiological and synthetic steroids on the calcium channel CatSper in human sperm” (Frontiers in Cell and Developmental Biology, 2023).
Read-outs that look alike come from different tables or passages of the source.

Assays:
Type in all cases: cell-based
CatSper [1] = molecular target: T1, CatSper (Homo sapiens, UniProt Q7RTX7+Q86XQ3+Q8NEC5+Q96P56); experiment: Steroid-induced increase in [Ca2+]i in human sperm (Fluo-4 HTS assay, screen 1 activators); settings: for Emax: read-out: Max amplitude (%) (± SD)
T1 construct: Motile spermatozoa were selected by a ‘swim-up’ procedure; endogenous in cells; host or cells: motile human spermatozoa (swim-up) from healthy donors
Procedure: (§1) Briefly, motile spermatozoa were selected by swim-up and labeled with the fluorescent calcium indicator Fluo-4 a.m. to image changes in [Ca^2+]i. After centrifugation to remove excess dye, Fluo-4 AM loaded cells were distributed in a 384-wells plate to obtain ∼125,000 cells/well. After measuring basal fluorescence, a first injection of compounds was performed in order to evaluate their effect on [Ca^2+]i alone. This first screen is therefore considered as a screen to search for ‘activators’. Fluorescence was recorded for 12 min during which sperm cells were continuously exposed to compounds. P4 or PGE1 were then added in the same wells to evaluate whether the tested compounds can reduce the ligand-induced activation of CatSper. This second screen was therefore considered to be a search for CatSper ‘inhibitors’.
Human semen samples were collected from healthy donors by masturbation after a recommended sexual abstinence period of minimum 2 days. Semen samples were allowed to liquefy at 37°C for 15–30 min. […] Motile sperm were allowed to swim at 37°C for 1 hour. The supernatant was collected in 15 mL Falcon tubes and washed twice by centrifugation at 700 x g for 20 min. Sperm were supplemented with 3 mg/mL HSA.
20 μL of cells (corresponding to ∼125,000 cells) loaded with Fluo-4 a.m. were dispensed in a 384-wells plate (Corning, NY, United States) to allow fluorescence measurement. The dye was excited at 480 nm, and emission was recorded at 530 nm. The change in [Ca^2+]i was assessed simultaneously in all wells using a Functional Drug Screening System (FDSS/μCELL) (Hamamatsu Phototonics K.K., Yokohama, Japan) at 37°C. Basal fluorescence was first measured for 30 s. […] P4 and PGE1 were tested at a near-saturating concentration in the HTS in order to evaluate a potential additive or synergistic effect induced by the compounds. […] For alkalization-induced Ca^2+ measurement, NH4Cl was used as a positive control at a final concentration of 10 mM. […] The Prestwick library was tested in technical duplicate. Ca^2+ response curves were normalized using the following formula F−F0/F0×100 , where F 0 is the average of the basal fluorescence prior to the addition of the compound of interest and F corresponds to the fluorescence value at each time point. The ∆F/F0 of the vehicle control (DMSO) was subtracted from all the other values to adjust for dilution and pipetting artifacts. The values of all compounds were normalized to their respective controls.
Data are shown as mean ± standard deviation (SD) with “n” referring to the number of independent experiments performed using sperm samples from ≥3 different donors. Statistical analysis and fitting of dose-response relations were performed using GraphPad Prism 8.1.1 (Prism, La Jolla, United States). To generate sigmoidal curves, the concentrations were converted to their respective log values, and the data were normalized using the following formula: 100⋅x/Fmax , where Fmax is the maximum value of the positive control. A four-parameter Hill equation with a variable Hill coefficient was fitted to generate the EC02, EC50, and IC50. Statistical significance between control and treated conditions was evaluated using a one-way analysis of variance (ANOVA), followed by Dunnett´s test. A p-value <0.05 was considered significant.

CatSper [2] = molecular target: T1, CatSper; experiment: Inhibition of P4-induced Ca2+ influx in human sperm (screen 2 inhibitors)
Procedure: as §1
(§2) Human semen samples were collected from healthy donors by masturbation after a recommended sexual abstinence period of minimum 2 days. Semen samples were allowed to liquefy at 37°C for 15–30 min. Motile spermatozoa were selected by a ‘swim-up’ procedure as previously described ([Strünker et al., 2011]). Briefly, 1 mL of semen was deposited in a 45°-inclined 50 mL Falcon tube with 4 mL of Human Tubular Fluid (HTF) medium containing: 93.8 mM NaCl, 4.7 mM KCl, 0.2 mM MgSO4, 0.37 mM KH2PO4, 2.04 mM CaCl2, 20.98 mM HEPES, 2.78 mM glucose, 21.4 mM Na-lactate, 4 mM NaHCO3, 0.33 mM Na-pyruvate, and the pH was adjusted to 7.35. Motile sperm were allowed to swim at 37°C for 1 hour. The supernatant was collected in 15 mL Falcon tubes and washed twice by centrifugation at 700 x g for 20 min. Sperm were supplemented with 3 mg/mL HSA. Written informed consent was obtained from all donors prior to donation and approved by the Cantonal Ethics Committee of the State of Geneva (CCER #14-147).
(§3) Cells were loaded with the fluorescent Ca^2+ indicator Fluo-4 AM at a final concentration of 2.5 µM for 30 min at 37°C. Excess dye was washed via centrifugation at 700 x g for 20 min and sperm were resuspended in HTF medium to obtain a final concentration of 6.25 x 10^6 cells/mL. 20 μL of cells (corresponding to ∼125,000 cells) loaded with Fluo-4 a.m. were dispensed in a 384-wells plate (Corning, NY, United States) to allow fluorescence measurement. The dye was excited at 480 nm, and emission was recorded at 530 nm. The change in [Ca^2+]i was assessed simultaneously in all wells using a Functional Drug Screening System (FDSS/μCELL) (Hamamatsu Phototonics K.K., Yokohama, Japan) at 37°C. Basal fluorescence was first measured for 30 s. […] P4 and PGE1 were tested at a near-saturating concentration in the HTS in order to evaluate a potential additive or synergistic effect induced by the compounds. Non-specific CatSper inhibitor MDL 12330A was used as a negative control at final concentration of 20 µM while DMSO was used as a vehicle control. For alkalization-induced Ca^2+ measurement, NH4Cl was used as a positive control at a final concentration of 10 mM. Fluorescence was recorded for a total of 16.5 min: 30 s before injection, 12 min after the first injection of the tested compounds, and 4 min after the second injection of either P4 or PGE1. The Prestwick library was tested in technical duplicate. Ca^2+ response curves were normalized using the following formula F−F0/F0×100 , where F 0 is the average of the basal fluorescence prior to the addition of the compound of interest and F corresponds to the fluorescence value at each time point. The ∆F/F0 of the vehicle control (DMSO) was subtracted from all the other values to adjust for dilution and pipetting artifacts. The values of all compounds were normalized to their respective controls.

CatSper [3] = molecular target: T1, CatSper; experiment: Inhibition of PGE1-induced Ca2+ influx in human sperm (screen 2 inhibitors)
Procedure: as §1, §2, §3

[4] = Mean EC50 µM (±SD), pooled from 3 independent experiments
[5] = Mean IC50 (P4) µM (±SD), P4-induced response, pooled from 3 independent experiments
[6] = maximal amplitude of steroid-induced [Ca2+]i increase, relative to P4, 3 independent experiments
[7] = pooled from 3 independent experiments, read-out: Mean EC50 µM (±SD)
[8] = P4-induced response, pooled from 3 independent experiments, read-out: Mean IC50 (P4) µM (±SD)
[9] = PGE1-induced response, pooled from 3 independent experiments, read-out: Mean IC50 (PGE1) µM (±SD)

Row | Molecule | Emax (CatSper [1]) [%] | Max P4 inhibition (%) (± SD) (CatSper [2]; 3 independent experiments) | Emax (CatSper [1]; [6]) [%] | EC50 (CatSper [1]; [7]) [µM] | IC50 (CatSper [2]; [8]) [µM] | IC50 (CatSper [3]; [9]) [µM] | other results
1 | C[C@]12CC[C@@H](O)C[C@@H]1CC[C@@H]1[C@@H]2CC[C@]2(C)C(=O)CC[C@@H]12 [androsterone] | 70 | 61 (±6) % |  |  |  |  | EC50 (CatSper [1]; [4]): 1.02 µM; IC50 (CatSper [2]; [5]): 2.11 µM; IC50 (CatSper [3]): 5.38 µM
2 | C[C@]12C/C(=C/O)C(=O)C[C@@H]1CC[C@@H]1[C@@H]2CC[C@@]2(C)[C@H]1CC[C@]2(C)O [oxymetholone] | 82 | 62 (±9) % |  |  |  |  | EC50 (CatSper [1]; [4]): 1.3 µM; IC50 (CatSper [2]; [5]): 4.74 µM; IC50 (CatSper [3]): 11.8 µM
3 | C#C[C@]1(OC(C)=O)CC[C@H]2[C@@H]3CCC4=C[C@@H](OC(C)=O)CC[C@@H]4[C@H]3CC[C@@]21C [ethynodiol diacetate] |  | 22 (±14) % | 35 | 17.7 | 13.9 | 12.2 | 
4 | C[C@H](CCC(=O)O)[C@H]1CC[C@H]2[C@@H]3[C@@H](O)C[C@@H]4C[C@H](O)CC[C@]4(C)[C@H]3CC[C@]12C [urosiol] |  | 13 (±3) % |  | 7.89 |  | 12.2 | Max amplitude (%) (± SD) (CatSper [1]; [6]): 25 (±8) %
5 | CC(=O)O[C@]1(C(C)=O)CC[C@H]2[C@@H]3C=C(Cl)C4=CC(=O)CC[C@]4(C)[C@H]3CC[C@@]21C [chlormadinone acetate] |  | 0 (±15) % | 4 | 34.7 |  | 38.4 | 
6 | CC(=O)O[C@]1(C(C)=O)CC[C@H]2[C@@H]3C=C(C)C4=CC(=O)CC[C@@H]4[C@H]3CC[C@@]21C [nomegestrol acetate] |  | 12 (±17) % | 19 | 22.7 | 41.2 | 52 | 
7 | CCCC1O[C@@H]2C[C@H]3[C@@H]4CCC5=CC(=O)C=C[C@]5(C)[C@H]4[C@@H](O)C[C@]3(C)[C@]2(C(=O)CO)O1 (stereo partly drawn) [budesonide] |  | 3 (±8) % | 7 |  |  | > 100 | 
8 | CC(C)(C)NC(=O)[C@H]1CC[C@H]2[C@@H]3CC[C@H]4NC(=O)C=C[C@]4(C)[C@H]3CC[C@]12C [finasteride] |  | 18 (±6) % | 39 | 0.78 |  | > 100 | 
9 | CC(=O)[C@H]1CC[C@H]2[C@@H]3C=CC4=CC(=O)CC[C@@]4(C)[C@@H]3CC[C@]12C [Dydrogesterone] |  | 94 (±4) % | 84 |  |  |  | EC02 compared with reported maximum concentration in blood serum (CatSper [1]): EC02 below the reported maximum concentration found in blood serum; effective concentrations as low as (dose-dependent increase in [Ca2+]i) (CatSper [1]): 10 nM; EC50 (CatSper [1]; EC50 (±SD), increase in [Ca2+]i, dose-response 90 µM to 0.3 nM): 0.13 µM; EC50 (CatSper [1]; [4]): 0.104 µM; IC50 (CatSper [2]; IC50 (±SD), inhibition of P4-induced Ca2+ response, dose-response 90 µM to 0.3 nM): 0.245 µM; IC50 (CatSper [2]; [5]): 0.24 µM; IC50 (CatSper [3]): 44.8 µM
10 | C#C[C@]1(O)CC[C@H]2[C@@H]3CCC4=CCCC[C@@H]4[C@H]3CC[C@@]21C [lynestrenol] |  | 47 (±27) % | 59 | 17.3 | 9.36 | 11.7 | 
11 | C#C[C@]1(O)CC[C@H]2[C@@H]3CCc4cc(O)ccc4[C@H]3CC[C@@]21C [ethinylestradiol] |  | 50 (±14) % | 69 | 1.8 | 3.36 | 6.68 | 
12 | C[C@H](CCC(=O)O)[C@H]1CC[C@H]2[C@@H]3CC[C@@H]4C[C@H](O)CC[C@]4(C)[C@H]3CC[C@]12C [lithocholic acid] | 59 |  |  |  |  |  | Max P4 inhibition (%) (± SD) (CatSper [2]): 32 (±10) %
13 | C[C@]12CC[C@H]3[C@@H](CC[C@H]4C[C@H](O)CC[C@@H]43)[C@@H]1CCC2=O [S85] | 99 | 96 (±2) % |  |  |  |  | EC50 (CatSper [1]; [4]): 0.259 µM; IC50 (CatSper [2]; [5]): 0.495 µM
14 | norgestrel-(-)-d |  | 3 (±5) % |  |  | 75.6 |  | Max amplitude (%) (± SD) (CatSper [1]; [6]): 5 (±3) %
15 | C[C@]12CC[C@@H]3c4ccc(O)cc4C[C@@H](CCCCCCCCC[S+]([O-])CCCC(F)(F)C(F)(F)F)[C@H]3[C@@H]1CC[C@@H]2O (stereo partly drawn) [fulvestrant] |  | 22 (±6) % | 28 | 2.24 | 6.95 |  | 
16 | C[C@]12CCC(=O)C=C1CC[C@@H]1[C@@H]2C(=O)C[C@]2(C)C(=O)CC[C@@H]12 [adrenosterone] |  | 24 (±3) % |  | 14.5 | 30.8 |  | Max amplitude (%) (± SD) (CatSper [1]; [6]): 26 (±2) %
17 | C#C[C@]1(OC(C)=O)CC[C@H]2[C@@H]3CCC4=CC(=NO)CC[C@@H]4[C@H]3CC[C@@]21CC (mixture of isomers) [norgestimate] |  | 53 (±5) % | 79 | 0.918 | 8.05 |  | 
18 | C=C1C[C@@H]2[C@H](CC[C@]3(C)C(=O)CC[C@@H]23)[C@@]2(C)C=CC(=O)C=C12 [exemestane] | 63 |  |  | 0.557 | 0.309 |  | Max P4 inhibition (%) (± SD) (CatSper [2]): 56 (±2) %
19 | CC12CCC3C(CC[C@H]4CC(=O)CCC34C)C1CCC2O (stereo partly drawn) [S65] | 91 | 95 (±1) % |  |  |  |  | 
